From patent US20250320205A1, “STAT6 DEGRADERS” (Gilead Sciences, Inc., priority 2024, published 2025) come the findings set out here.

One experiment addresses T1, STAT6 (Homo sapiens, UniProt P42226).
T1 construct: These cells express endogenous STAT6; host or cells: HeLa LgBiT clone 4.14 (CRISPR knock-in of HiBiT into the endogenous STAT6 gene)
T1 sequence (P42226 1-847): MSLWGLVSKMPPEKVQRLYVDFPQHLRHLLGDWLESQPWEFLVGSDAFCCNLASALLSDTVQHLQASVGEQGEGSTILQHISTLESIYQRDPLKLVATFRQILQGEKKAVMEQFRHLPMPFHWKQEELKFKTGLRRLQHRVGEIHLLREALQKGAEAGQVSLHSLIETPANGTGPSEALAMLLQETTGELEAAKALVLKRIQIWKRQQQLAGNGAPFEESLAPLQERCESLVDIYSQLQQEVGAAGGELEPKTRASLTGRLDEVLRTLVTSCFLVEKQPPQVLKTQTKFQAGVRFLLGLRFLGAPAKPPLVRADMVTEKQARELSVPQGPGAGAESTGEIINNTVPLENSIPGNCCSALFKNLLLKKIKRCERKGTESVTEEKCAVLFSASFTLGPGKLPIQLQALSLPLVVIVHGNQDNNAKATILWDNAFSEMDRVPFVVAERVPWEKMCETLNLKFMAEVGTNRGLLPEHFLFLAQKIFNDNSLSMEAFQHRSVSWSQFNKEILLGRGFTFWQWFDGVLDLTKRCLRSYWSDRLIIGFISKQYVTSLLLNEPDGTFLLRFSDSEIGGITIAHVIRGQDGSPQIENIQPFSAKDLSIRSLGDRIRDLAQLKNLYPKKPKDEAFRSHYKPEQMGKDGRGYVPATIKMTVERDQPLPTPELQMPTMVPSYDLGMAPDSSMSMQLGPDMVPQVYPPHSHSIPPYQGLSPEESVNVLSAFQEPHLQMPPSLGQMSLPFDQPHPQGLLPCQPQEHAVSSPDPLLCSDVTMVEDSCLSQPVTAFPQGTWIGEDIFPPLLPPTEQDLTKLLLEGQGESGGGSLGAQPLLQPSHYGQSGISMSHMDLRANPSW
Briefly: STAT6 Degrader Assay (HiBiT based, HeLa LgBiT clone 4.14 cells). It counts as cell-based. The following applies: HeLa; maximal STAT6 degradation. How it is done: This was a HiBit based assay. A HeLa cell line stably transfected with a small protein, LgBit (Large Bit) was obtained from Promega. These cells express endogenous STAT6. A small 11 amino acid gene sequence (HiBiT) was inserted in the STAT6 gene using CRISPR technology. Once STAT6 protein is expressed in the cells, the HiBiT sequence will bind the LgBit in the cells resulting in a functional NanoBiT protein, giving a luminescent tag to STAT6. Single cell clones were prepared and the clone 4.14 was selected for the assay based on that clone showing high luminescence, high STAT6 phosphorylation upon stimulation with IL-4, and inhibition of luminescence when cells were treated with STAT6 siRNA. HeLa LgBiT clone 4.14 cells were suspended in DMEM with 10% FCS, 1% Pen/Strep, Na-pyrovate and Hygromycin B, at a concentration of 1.25*105 cells pr mL. 5000 cells were added pr well of a 384 well plate and 20 nL of compound was added by Echo® liquid handler. NN6394A (terfenadine, a toxic compound) was added to control wells at 50 μM concentration to establish the assay window. In these wells the cells are dead which equals 100% degradation of STAT6. After 4-24 h of incubation at 37° C. under 5% CO2/95% air, 5 μL substrate (Nano-GLO®) was added to the wells and the plates were centrifuged and incubated for 0.5 h. The luminescence in the wells as a measure of non-degraded STAT6 was measured in a plate reader (BMG Pherastar FSX). The measured DC50 (in nM) was determined.
Turning to `CNc1ccn(-c2ccnc3c2cc(CN2CC=C(c4c(C)cc(C(=O)N5CCC(CN6CCN(c7ccc(N[C@@H]8CCC(=O)NC8=O)cc7F)CC6)CC5)cc4F)CC2)n3C)c(=O)c1` (single isomer, unassigned) [Example 2g56], the maximal effect (Emax) was 70 to 80%.

Staying with this experiment, now noted: geometric mean across assay runs and compound batches; DC50 provided for test compounds with >80% Emax; read-out: STAT6 degradation DC50.
As to `Cc1cc(C(=O)N2CCC(CN3CCN(c4ccc(N[C@@H]5CCC(=O)NC5=O)cc4F)CC3)CC2)cc(F)c1C1=CCN([C@@H](C)c2cc3c(-n4ccc5c(c4=O)CCN5)ccnc3n2C)CC1` (single isomer, unassigned) [Example 2g20], the DC50 was found to be 6.9 nM. Same read-out and setting: for `CNc1ccn(-c2ccnc3c2cc([C@H](C)N2CC=C(c4c(C)cc(C(=O)N5CCn6nc(CN7CCC(c8ccc(N[C@@H]9CCC(=O)NC9=O)cc8F)CC7)cc6C5)cc4F)CC2)n3C)c(=O)c1` (single isomer, unassigned) [Example 2g17] the value was 0.2 nM. On the same count and under the same terms, to `Cc1cc(C(=O)N2CCC(CN3CCN(c4ccc(N[C@H]5CCC(=O)NC5=O)cc4F)CC3)CC2)cc(F)c1C1=CCN([C@@H](C)c2cc3c(-n4ccc5c(c4=O)CCN5)ccnc3n2C)CC1` (single isomer, unassigned) [Example 2g19] belongs 4.5 nM; to `Cc1cc(C(=O)N2CCC(CN3CCN(c4ccc(NC5CCC(=O)NC5=O)cc4F)CC3)CC2)cc(F)c1C1CCN(Cc2cc3c(-n4ccc5c(c4=O)CCN5)ccnc3n2C)CC1` (stereo not drawn) [Example 2g36, 3-((3-fluoro-4-(4-((1-(3-fluoro-5-methyl-4-(1-((1-methyl-4-(4-oxo-1,2,3,4-tetrahydro-5H-pyrrolo[3,2-c]pyridin-5-yl)-1H-pyrrolo[2,3-b]pyridin-2-yl)methyl)piperi-din-4-yl)benzoyl)piperidin-4-yl)methyl)piperazin-1-yl)-phenyl)amino)piperidine-2,6-dione], 35.7 nM; to `CNc1cc(=O)n(-c2ccnc3c2cc([C@H](C)N2CC=C(c4c(C)cc(C(=O)N5CCC(CN6CCN(c7ccc(N[C@@H]8CCC(=O)NC8=O)cc7F)C[C@H]6C)CC5)cc4F)CC2)n3C)cc1F` (single isomer, unassigned) [Example 2g28], 10.3 nM. Same read-out and setting: to `Cc1cc(C(=O)N2CCC(CN3CCN(c4ccc(N[C@H]5CCC(=O)NC5=O)cc4F)C[C@H]3C)CC2)cc(F)c1C1=CCN([C@@H](C)c2cc3c(-n4ccc5c(c4=O)CCN5)ccnc3n2C)CC1` (single isomer, unassigned) [Example 2g23] belongs 3.3 nM; to `CNc1cc(=O)n(-c2ccnc3c2cc([C@H](C)N2CC=C(c4c(C)cc(C(=O)N5CCC(CN6CCN(c7ccc(N[C@H]8CCC(=O)NC8=O)cc7F)CC6)CC5)cc4F)CC2)n3C)cc1F` (single isomer, unassigned) [Example 2g92], 5.9 nM; to `CNc1ccn(-c2ccnc3c2cc([C@H](C)N2CC=C(c4c(C)cc(C(=O)N5CCC(CN6CCN(c7ncc(N[C@H]8CCC(=O)NC8=O)cc7F)C[C@@H]6C)CC5)cc4F)CC2)n3C)c(=O)c1` (single isomer, unassigned) [Example 2g95], 11 nM. For the compound `CNc1ccn(-c2ccnc3c2cc([C@H](C)N2CC=C(c4c(C)cc(C(=O)N5CCC(CN6CCN(c7ncc(N[C@@H]8CCC(=O)NC8=O)cc7F)C[C@@H]6C)CC5)cc4F)CC2)n3C)c(=O)c1` (single isomer, unassigned) [Example 2g96], the half-maximal degradation concentration (DC50) is 14 nM.

With `CNc1ccn(-c2ccnc3c2cc([C@H](C)N2CC=C(c4c(C)cc(C(=O)N5CCC(CN6CCN(c7ccc(N[C@@H]8CCC(=O)NC8=O)cc7F)C[C@H]6C)CC5)cc4F)CC2)n3C)c(=O)c1` (single isomer, unassigned) [Example 2g47], the 50% degradation concentration (DC50) stood at 3.3 nM.

Regarding `CNc1cc(=O)n(-c2ccnc3c2cc([C@H](C)N2CC=C(c4c(C)cc(C(=O)N5CCC(CN6CCN(c7ccc(N[C@H]8CCC(=O)NC8=O)cc7F)C[C@H]6C)CC5)cc4F)CC2)n3C)cc1F` (single isomer, unassigned) [Example 2g29], the DC50 amounted to 3.6 nM.
